In patent US4101536A, “Muramyldipeptide derivatives and process for the preparation thereof” (Daiichi Seiyaku Co., Ltd., priority 1976, dated 1978):
“And” between values parts separate entries of the source, which are not always exact repeats. Equal values may be shown once.

How the values were obtained:
[1] = system: Hartley guinea pigs; assay: Adjuvant activity on the induction of delayed-type hypersensitivity to ABA-Tyr (skin test); format: in vivo, guinea pig; conditions: with 50 μg ABA-Tyr in Freund's incomplete adjuvant, four footpads, skin test two weeks later, mm ± SE
Procedure: Adjuvant activity of the object compound on the induction of delayed-type hypersensitivity to ABA-Tyr.
Hartley guinea pigs were immunized into four footpads with 50 μg of N-acetyl-L-tyrosine-3-azobenzene-4'-arsonic acid (ABA-Tyr) in Freund's incomplete adjuvant with a test material dissolved or suspended in phosphate buffered saline. Control groups were immunized with ABA-Tyr alone in Freund's incomplete adjuvant.
Two weeks later, skin test with 100 μg of ABA-bacterial α-amylose (ABA-BαA) dissolved in saline was made and skin reaction was measured 24 hours after intradermal injection of test antigen.

[2] = system: mastocytoma P815-X2 cells; assay: Adjuvant activity on the induction of cell-mediated cytotoxic cells in the spleen of allogenic mice (Brunner's method); format: in vivo, C57BL/6J mice; conditions: phosphate buffered saline suspension, eleven days after
Procedure: Adjuvant activity on the induction of cell-mediated cytotoxic cells in the spleen of allogenic mice (C57BL/6J).
Three or four mice of C57BL/6J in each group were immunized intraperitoneally with a mixture of mastocytoma P815-X2 cells (1 × 10^4) and a test material dissolved or suspended in phosphate buffered saline. Control group was immunized with mastocytoma P815-X2 cells alone.
Eleven days after, cell-mediated cytotoxicity was determined by Brunner's method (Immunology 18, 501-515 1970).

[3] = system: MH134 hepatoma; assay: Antitumor activity on the suppression of MH-134 hepatoma; format: in vivo, C3H/He mice; conditions: intradermal, A = mice with tumor growth completely suppressed, B = tested mice
Procedure: Antitumor activity on the suppression of MH-134 hepatoma in C3H/He mice
The antitumor activity of the compounds of this invention was examined by using MH134 hepatoma in syngeneic C3H/He mice. A mixture of tumor cells of MH134 (1 × 10^5) and materials (100 or 20 μg) dissolved or suspended in phosphate buffered saline and transplanted intradermally into C3H/He mice and the tumor growth was measured in inoculated sites.

[4] = system: mastocytoma P815-X2 cells; conditions: immunization with allogeneic antigen, mastocytoma P815-X2 cell in vivo; prior-art statement; cited from earlier work
[5] = system: MH134 hepatoma; conditions: MH134 hepatoma in C3H/He; prior-art statement; cited from earlier work
[6] = system: melanoma B16; conditions: melanoma B16 in C57BL/6J; prior-art statement; cited from earlier work
[7] = system: ovalmin protein antigen; conditions: increased serum antibody levels and induction of delayed-type hypersensitivity; prior-art statement; cited from earlier work
[8] = dose 10 μg/mice i.p. with P815-X2 cells (1 × 10^4)
[9] = dose 100 μg/mice i.p. with P815-X2 cells (1 × 10^4)
[10] = dose 20 μg mixed with MH134 cells (1 × 10^5)
[11] = dose 100 μg mixed with MH134 cells (1 × 10^5)

Molecule | Skin reaction with 100μg of ABA-BαA at 24 hrs. ([1]; dose 30 μg) | Skin reaction with 100μg of ABA-BαA at 24 hrs. ([1]; dose 300 μg) | Specific Target Cell Lysis [2, 8] | Specific Target Cell Lysis [2, 9] | Antitumor Activity A/B Tumor Growth [3, 10] | Skin reaction with 100μg of ABA-BαA at 24 hrs. ([1]; dose 50 μg) | Skin reaction with 100μg of ABA-BαA at 24 hrs. ([1]; dose 500 μg) | Antitumor Activity A/B Tumor Growth [3, 11] | Skin reaction with 100μg of ABA-BαA at 24 hrs. ([1]; dose 40 μg) | Skin reaction with 100μg of ABA-BαA at 24 hrs. ([1]; dose 400 μg) | Skin reaction with 100μg of ABA-BαA at 24 hrs. ([1]; dose 100 μg) | adjuvant activity in the generation of cell-mediated cytotoxic effector cells on the spleen [4] | antitumor activity on syngeneic mouse tumor system [5] | antitumor activity on syngeneic mouse tumor system [6] | immunoadjuvant activity [7]
6-O-corynomycoloyl-N-acetylmuramyl-L-alanyl-D-isoglutamine [Coryno-L-Ala-D-isoGln] | 21.2 ± 1.9 mm | 22.0 ± 0.6 mm | 16.1 ± 5.0% | 28.8 ± 14.4% | 6/10 | – | – | – | – | – | – | – | – | – | –
6-O-mycomycoloyl-N-acetylmuramyl-L-alanyl-D-isoglutamine [Myco-L-Ala-D-isoGln] | – | – | 3.9% | 69.7% | – | 22.8 ± 0.6 mm and 12.8 ± 1.6 mm | 20.9 ± 0.8 mm and 17.1 ± 0.5 mm | 10/10 | – | – | – | – | – | – | –
6-O-mycomycoloyl-N-acetylmuramyl-L-ser-D-isoglutamine [Myco-L-Ser-D-isoGln] | – | – | 21.8 ± 15.2% | 30.4 ± 14.0% | – | 18.0 ± 0.6 mm | 15.0 ± 0.5 mm | 10/10 | – | – | – | – | – | – | –
6-O-mycomycoloyl-N-acetylmuramyl-glycyl-D-isoglutamine [Myco-Gly-D-isoGln] | – | – | 39.3 ± 3.2% | 77.0 ± 4.0% | – | 2.7 ± 0.7 mm | 15.3 ± 0.6 mm | 7/10 | – | – | – | – | – | – | –
6-O-nocardomycoloyl-N-acetylmuramyl-L-alanyl-D-isoglutamine [Nocardo-L-Ala-D-isoGln] | – | – | 21.0 ± 7.6% | 76.9 ± 3.2% | 5/10 | – | – | – | 24.5 ± 0.7 mm | 23.0 ± 1.5 mm | – | – | – | – | –
CCCCCCCCCCCCCCCCCC(=O)OCC1OC(O)C(NC(C)=O)C(OC(C)C(=O)NC(C)C(=O)NC(CCC(=O)O)C(N)=O)C1O (stereo not drawn) [Stearoyl-muramyldipeptide, 6-O-stearoyl-muramyldipeptide, reference compound] | – | – | – | 4.2% | 0/10 | – | – | 0/10 | – | – | 17.2 ± 1.2 mm | no adjuvant activity | no antitumor activity | no antitumor activity | immunological properties almost similar to those of muramyldipeptide
